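Each compound was tested at five concentrations against cells in 96-well plates for 48 hours. At the GI50, growth is halved.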 Active and inactive are the calls of the source. No stated cut-off is given here; in the data, active = GI50 up to about 1.1 µM and inactive = higher.
Tests used:
Experiment in all cases: DTP human tumour cell line panel, 48 h
A549 = system: A549
UO-31 = system: UO-31
CCRF-CEM = system: CCRF-CEM
DU-145 = system: DU-145
SW-620 = system: SW-620
HCT-116 = system: HCT-116
SF-268 = system: SF-268
SK-OV-3 = system: SK-OV-3
NCI-H226 = system: NCI-H226
SNB-75 = system: SNB-75
NCI-H522 = system: NCI-H522
U-251 = system: U-251
PC-3 = system: PC-3
MCF7 = system: MCF7
Hs-578T = system: Hs-578T
MDA-N = system: MDA-N
OVCAR-4 = system: OVCAR-4
MOLT-4 = system: MOLT-4
ACHN = system: ACHN
LOX IMVI = system: LOX IMVI
A498 = system: A498
KM12 = system: KM12
HCC 2998 = system: HCC 2998
SNB-19 = system: SNB-19
K562 = system: K562
SN12C = system: SN12C
NCI/ADR-RES = system: NCI/ADR-RES
SK-MEL-5 = system: SK-MEL-5
SR = system: SR
RXF 393 = system: RXF 393
UACC-257 = system: UACC-257
COLO 205 = system: COLO 205
HOP-92 = system: HOP-92
TK-10 = system: TK-10
NCI-H460 = system: NCI-H460
SK-MEL-28 = system: SK-MEL-28
OVCAR-8 = system: OVCAR-8
SF-295 = system: SF-295
HT-29 = system: HT-29
EKVX = system: EKVX
IGROV-1 = system: IGROV-1
OVCAR-3 = system: OVCAR-3
RPMI-8226 = system: RPMI-8226
SF-539 = system: SF-539
OVCAR-5 = system: OVCAR-5
UACC-62 = system: UACC-62
T47D = system: T47D
786-0 = system: 786-0
SK-MEL-2 = system: SK-MEL-2
HOP-62 = system: HOP-62
NCI-H23 = system: NCI-H23
CAKI-1 = system: CAKI-1
MDA-MB-231 = system: MDA-MB-231
HL-60 = system: HL-60
M14 = system: M14
Malme-3M = system: Malme-3M
HCT-15 = system: HCT-15

## Cc1ccc(S(=O)(=O)NCCSCCSCCNS(=O)(=O)c2ccc(C)cc2)cc1
A549
  GI50: 30.5 µM (inactive)
UO-31
  GI50: 34.1 µM (inactive)
CCRF-CEM
  GI50: 36.9 µM (inactive)
DU-145
  GI50: 51.2 µM (inactive)
SW-620
  GI50: 44.6 µM (inactive)
HCT-116
  GI50: 34.7 µM (inactive)
SF-268
  GI50: 24 µM (inactive)
SK-OV-3
  GI50: 18.4 µM (inactive)
NCI-H226
  GI50: 49 µM (inactive)
SNB-75
  GI50: 20.8 µM (inactive)
NCI-H522
  GI50: 62.5 µM (inactive)
U-251
  GI50: 4.6 µM (inactive)
PC-3
  GI50: 22.6 µM (inactive)
MCF7
  GI50: 38.9 µM (inactive)
Hs-578T
  GI50: 47.2 µM (inactive)
MDA-N
  GI50: 56 µM (inactive)
OVCAR-4
  GI50: 34.8 µM (inactive)
MOLT-4
  GI50: 34 µM (inactive)
ACHN
  GI50: 48.6 µM (inactive)
LOX IMVI
  GI50: 25.4 µM (inactive)
A498
  GI50: 10 µM (inactive)
KM12
  GI50: 25.6 µM (inactive)
HCC 2998
  GI50: 39.4 µM (inactive)
SNB-19
  GI50: 63.4 µM (inactive)
K562
  GI50: 48.6 µM (inactive)
SN12C
  GI50: 47.4 µM (inactive)
NCI/ADR-RES
  GI50: 24 µM (inactive)
SK-MEL-5
  GI50: 4.7 µM (inactive)
SR
  GI50: 37.2 µM (inactive)
RXF 393
  GI50: 56.2 µM (inactive)
UACC-257
  GI50: 34.4 µM (inactive)
COLO 205
  GI50: 19.4 µM (inactive)
HOP-92
  GI50: 22 µM (inactive)
TK-10
  GI50: 53.2 µM (inactive)
NCI-H460
  GI50: 25.4 µM (inactive)
SK-MEL-28
  GI50: > 100 µM (inactive)
OVCAR-8
  GI50: 47.2 µM (inactive)
SF-295
  GI50: 45.8 µM (inactive)
HT-29
  GI50: 28.6 µM (inactive)

## CN(NC(=O)CC(=O)NN(C)C(=S)c1ccccc1)C(=S)c1ccccc1 [ELESCLOMOL]
SW-620
  GI50: 67 µM (inactive)
EKVX
  GI50: 33.9 µM (inactive)
HCT-116
  GI50: 62.1 µM (inactive)
SK-OV-3
  GI50: > 100 µM (inactive)
NCI-H226
  GI50: 83.8 µM (inactive)
MDA-N
  GI50: > 100 µM (inactive)
LOX IMVI
  GI50: 35.4 µM (inactive)
IGROV-1
  GI50: > 100 µM (inactive)
HCC 2998
  GI50: 64.7 µM (inactive)
SNB-19
  GI50: 84.7 µM (inactive)
OVCAR-3
  GI50: > 100 µM (inactive)
RPMI-8226
  GI50: < 0.01 µM (active)
SR
  GI50: 28.3 µM (inactive)
SF-539
  GI50: > 100 µM (inactive)
HOP-92
  GI50: > 100 µM (inactive)
OVCAR-5
  GI50: > 100 µM (inactive)
TK-10
  GI50: > 100 µM (inactive)
SF-295
  GI50: 46 µM (inactive)
HT-29
  GI50: < 0.01 µM (active)
UACC-62
  GI50: 50.2 µM (inactive)

## O=CC(O)C(O)C(O)C(O)COP(=O)(O)Cc1ccccc1 (stereo unspecified)
A549
  GI50: > 10 µM (inactive)
SW-620
  GI50: > 10 µM (inactive)
T47D
  GI50: > 10 µM (inactive)
SF-268
  GI50: > 10 µM (inactive)
SK-OV-3
  GI50: > 10 µM (inactive)
SNB-75
  GI50: > 10 µM (inactive)
U-251
  GI50: > 10 µM (inactive)
MCF7
  GI50: > 10 µM (inactive)
OVCAR-4
  GI50: > 10 µM (inactive)
786-0
  GI50: > 10 µM (inactive)
ACHN
  GI50: > 10 µM (inactive)
K562
  GI50: > 10 µM (inactive)
SK-MEL-2
  GI50: > 10 µM (inactive)
NCI/ADR-RES
  GI50: > 10 µM (inactive)
HOP-62
  GI50: > 10 µM (inactive)
SK-MEL-5
  GI50: > 10 µM (inactive)
RPMI-8226
  GI50: > 10 µM (inactive)
SR
  GI50: > 10 µM (inactive)
RXF 393
  GI50: > 10 µM (inactive)
NCI-H23
  GI50: > 10 µM (inactive)
CAKI-1
  GI50: > 10 µM (inactive)
OVCAR-5
  GI50: > 10 µM (inactive)
NCI-H460
  GI50: > 10 µM (inactive)
SK-MEL-28
  GI50: > 10 µM (inactive)

## CCC1(c2ccccc2)Sc2ccccc2-n2cccc2C1=O (stereo unspecified)
A549
  GI50: > 10 µM (inactive)
CCRF-CEM
  GI50: > 10 µM (inactive)
DU-145
  GI50: > 10 µM (inactive)
SW-620
  GI50: > 10 µM (inactive)
T47D
  GI50: > 10 µM (inactive)
EKVX
  GI50: > 10 µM (inactive)
SK-OV-3
  GI50: > 10 µM (inactive)
SNB-75
  GI50: > 10 µM (inactive)
MDA-MB-231
  GI50: 9.31 µM (inactive)
HL-60
  GI50: 4.12 µM (inactive)
PC-3
  GI50: 8.53 µM (inactive)
MCF7
  GI50: > 10 µM (inactive)
MDA-N
  GI50: 3.5 µM (inactive)
786-0
  GI50: > 10 µM (inactive)
MOLT-4
  GI50: 5.37 µM (inactive)
IGROV-1
  GI50: > 10 µM (inactive)
M14
  GI50: > 10 µM (inactive)
KM12
  GI50: 7.8 µM (inactive)
HCC 2998
  GI50: > 10 µM (inactive)
K562
  GI50: 4.6 µM (inactive)
SN12C
  GI50: > 10 µM (inactive)
HOP-62
  GI50: > 10 µM (inactive)
SK-MEL-5
  GI50: > 10 µM (inactive)
RPMI-8226
  GI50: 4.32 µM (inactive)
Malme-3M
  GI50: 8.34 µM (inactive)
SR
  GI50: 3.79 µM (inactive)
RXF 393
  GI50: 9.79 µM (inactive)
NCI-H23
  GI50: > 10 µM (inactive)
UACC-257
  GI50: > 10 µM (inactive)
CAKI-1
  GI50: > 10 µM (inactive)
COLO 205
  GI50: > 10 µM (inactive)
TK-10
  GI50: > 10 µM (inactive)
SK-MEL-28
  GI50: > 10 µM (inactive)
HCT-15
  GI50: 8.79 µM
OVCAR-8
  GI50: > 10 µM (inactive)
SF-295
  GI50: > 10 µM (inactive)
HT-29
  GI50: 9.62 µM (inactive)
UACC-62
  GI50: > 10 µM (inactive)

Reference: ChEMBL document CHEMBL1201862, “PubChem BioAssay data set” (2004)
